Experimental data reported in publication PMC9968064, “First Synthesis of DBU-Conjugated Cationic Carbohydrate Derivatives and Investigation of Their Antibacterial and Antifungal Activity” (International Journal of Molecular Sciences, 2023).
“Also recorded” adds a separate entry of the source. Where two headings read alike, the source gives them in different places.

How the values were obtained:
[1] = tested on: Candida albicans (ATCC 10231); set-up: method as in PMID 32349998, PMID 25392352; settings: reference antifungal; cited from earlier work
[2] = tested on: Staphylococcus aureus ssp. aureus (ATCC 6538); set-up: method as in PMID 22866984; settings: reference antibiotics; cited from earlier work
[3] = tested on: Escherichia coli (ATCC 8739); set-up: method as in PMID 24144185; settings: reference antibiotics; cited from earlier work
[4] = tested on: Lactobacillus plantarum subsp. plantarum (ATCC 14917); experiment: Membrane permeabilization by SYTOX green staining; type: cell-based; settings: 6.25 µg/mL; for membrane permeabilization (cellular fluorescence of SYTOX green): Figure 5
Procedure: In membrane permeabilization experiments, the Gram-positive Lactobacillus plantarum was used to test the effect of compounds 10 and 22 at 6.25 µg/mL for 48 h. Bacterial cells were stained with SYTOX green (SG) fluorescent dye, which is impermeable on intact membranes but easily penetrates through compromised membranes.
Lactobacillus plantarum subsp. plantarum (ATCC 14917) was purchased from ATCC (Manassas, VA, USA). The membrane permeabilization ability of compounds 10 and 22 was tested on L. plantarum and determined in the brain heart infusion medium (BHI) (CliniChem Ltd., Budapest, Hungary). Bacterial cells were treated with the test compounds at the final concentration of 6.25 µg/mL and samples were taken at 1, 4, 8, 24 and 48 h. Samples were stained with SYTOX green fluorescent dye (ThermoFischer Scientific, Budapest, Hungary) at 1 µM final concentration for 30 min at 37 °C, and flow cytometric measurements were carried out with a Guava Easy Cyte 6HT-2L flow cytometer (Merck Ltd., Darmstadt, Germany). Green (525/30 nm) and red (695/50 nm) fluorescence channels were used to gate out the cells on a green versus red dot plot. The ratio of the SYTOX green (SG) positive bacterial cells was evaluated.

[5] = tested on: Escherichia coli (ATCC 8739); experiment: MIC determination (antibacterial susceptibility test, CLSI / Hungarian Pharmacopeia); type: cell-based; settings: Escherichia coli, ATCC8739, tested range 6.25–100 µg/mL
Procedure: (§1) The antimicrobial activity of twenty-two cationic hexopyranoside-amidinium salts (3, 10, 11, 12, 21, 22, 23, 24, 29, 30, 32, 37, 38, 45, 46, 47, 48, 49, 50, 51, 52 and 53) were compared in susceptibility tests (Table 2). The effectiveness of all compounds was tested on Staphylococcus aureus ssp. aureus (ATCC 6538), Escherichia coli (ATCC 8739) and Candida albicans (ATCC 10231). We tested the antimicrobial activity of the compounds at the concentration range of 6.25–100 µg/mL.
(§2) The detection of the antibacterial and antifungal effects of the tested compounds and the determination of the minimum inhibitory concentration (MIC) were carried out based on the method of CLSI [48] and Hungarian Pharmacopeia (chapters VIII. 2.6.12–13.).
(§3) For the antimicrobial studies, we used three human pathogens as test organisms: Candida albicans (ATCC 10231), Staphylococcus aureus subspecies aureus (ATCC 6538) and Escherichia coli (ATCC 8739).
(§4) Staphylococcus aureus subspecies aureus and Escherichia coli were cultured on tryptic soya agar (TSA) for 18–24 h at 37 °C. Candida albicans was cultured on Sabouraud dextrose agar (SDA) for 18–24 h at 37 °C. To obtain cells for suspension, we made cell suspensions from Staph. aureus, E. coli and C. albicans with the cotton swab suspension technique. The dilution of suspension was then made with 0.85% NaCl solution, absorbance being set to A600nm = 0.06. a volume of 10 μL of these suspensions contained ~4.5–6.0 × 10^4 colony forming unit (CFU) (bacteria) and ~1.5–2.0 × 10^3 CFU for yeast.
(§5) Tested agents were diluted with DMSO; the concentration of stock solutions was 4 mg/mL; and to ensure sterility, the closed sample containers were incubated at 35 °C for 1 h. The highest final concentration was 100 μg/mL.
(§6) Testing was performed in 24-well plates, and cell suspensions were prepared with 0.85% NaCl solution. Stock solutions were made from the agents with DMSO (100%). Final concentrations of used compounds were 6.25–100 µg/mL. […] After inoculation, plates were incubated at 35 °C, and results were then read visually after 18–24 h. If microbial growth could not be detected, results were read visually after 72 h. If there was no growth after 72 h, incubation was continued till the fifth day of the experiment and the results were read visually and with plate reader at 600 nm after 120 h.
(§7) The MIC value of a compound was defined as the minimal concentration that inhibits the growth of bacteria and yeasts comparing to the control. The results of the antibacterial and antifungal tests were read visually after 24, 48, 72 and 120 h. The microbial growth was measured by plate reader at 600 nm after 120 h.

[6] = tested on: Staphylococcus aureus ssp. aureus (ATCC 6538); experiment: as above; type: cell-based; settings: for MIC: Staphylococcus aureus, ATCC6538, tested range 6.25–100 µg/mL
Procedure: as §1, §2, §3, §4, §5, §6, §7

[7] = tested on: HaCaT (human keratinocyte) cell line; experiment: MTT viability test on HaCaT cells; type: cell-based; settings: 24 h; for IC50: Homo sapiens, HaCaT, 50–3.125 µg/mL; for effect on HaCaT cell viability at antibacterially and antifungally active concentrations: ≤6.25 µg/mL
Procedure: The cytotoxic effect of six selected compounds (3, 10, 12, 21, 22 and 29) with promising antimicrobial activity was studied on HaCaT (human keratinocyte) cell lines. Using the MTT-test, we determined the viability of the cells (Figure 3), and the half maximal inhibitory concentration (IC50) values of the compounds are summarized in Table 4. The duration of tests was 24 h; the examined concentrations were: 50–25–12.5–6.25–3.125 µg/mL. The IC50 value of a compound was defined as the concentration that inhibits cell growth by 50% relative to the control. […], the medium containing the inhibitor was removed, and 10 μL MTT solution was added to the cells. The plates were then incubated for two hours at 37 °C. The medium from the wells was then carefully aspirated, and MTT formazan dissolved with 100 μL of DMSO aided by gentle agitation on a shaker. After 10 min at room temperature, the absorbances were read at 570 nm by an automatic plate reader. The percentage of viability reflecting the respiratory potential of the cell population in each well was expressed as (absorbance of treated cells/absorbance of control cells) × 100. IC50 values of tested agents were determined by Graphpad (Prism) semi-log line fitting (graphpad.com (8)). The MTT test was performed after treatment and removal of inhibitors followed by the addition of 10 μL of MTT solution to the cells. We tested the toxic effect of compounds 3, 10, 12, 21, 22 and 29 on HaCaT cell line. HaCaT is a spontaneously transformed, aneuploid keratinocyte, an adherent cell type derived from the epithelium of Human […] adult skin. The cell line was immortalized in 1986 under low calcium and high-temperature conditions. Cells were cultured in DMEM medium (iBiotech, Szigetszentmiklós, Hungary) containing 10% fetal bovine serum (FBS, iBiotech, Szigetszentmiklós, Hungary) and 1% antibiotic-antimycotic mix (Penicillin–Streptomycin–Neomycin).

[8] = tested on: Candida albicans (ATCC 10231); experiment: MIC determination (antifungal susceptibility test); type: cell-based; settings: for MIC: Candida albicans
Procedure: as §1, §2, §3, §4, §5
as §6, with “Final concentrations of used compounds were 6.25–100 µg/mL.” left out
as §7

rat red blood cells = experiment: Hemolytic activity on rat red blood cells; type: cell-based, Sprague-Dawley rat; settings: 15 min, 37 °C; for hemolysis compared to negative control PBS: 6.25 µg/mL; for hemolysis (haemoglobin release): 50 and 100 µg/mL, comparable to water positive control
Procedure: The hemolytic activity of compounds 10 and 22 was determined on freshly isolated rat red blood cells (Figure 4).
Blood was collected from a Sprague-Dawley rat into an EDTA tube. Erythrocytes were separated from blood by centrifugation at 1800 rpm for 8 min, washed 3 times with phosphate buffered saline (PBS), and resuspended in PBS. Aliquots of the cell suspension with the respective red blood cell number of 7 × 10^7 were added to PBS containing increasing concentrations of the test compounds or the vehicle DMSO. After gently mixing, each mixture was incubated at 37 °C for 15 min. The released hemoglobin into the supernatant was separated by a rapid centrifugation at 5000 rpm for 5 min. Finally, the absorbance of the released hemoglobin was measured at 540 nm using a Multiskan Go (ThermoFisher, Waltham, MA, USA) microplate reader. The absorbance values were compared to the absorbance of the sample kept in purified water during the incubation as positive control and given as percent hemolysis.

[9] = ATCC10231, 10× diluted, tested range 0.625–10.0 µg/mL, read-out: MIC Candida albicans (ATCC 10231), lower concentrations
[10] = ATCC10231, tested range 6.25–100 µg/mL, read-out: MIC Candida albicans (ATCC 10231)

| MIC [5] [µg/mL] | MIC [6] [µg/mL] | MIC [8, 9] [µg/mL] | MIC [8, 10] [µg/mL] | Structure (SMILES) | cytotoxic effect on HaCaT cells (in words) [7] | IC50 [7] [µg/mL] | also measured |
| --- | --- | --- | --- | --- | --- | --- | --- |
|  |  |  |  | C[C@@H]1[C@H](O)[C@@H](C)/C=C/C=C/C=C/C=C/C=C/C=C/C=C/[C@H](O[C@@H]2O[C@H](C)[C@@H](O)[C@H](N)[C@@H]2O)C[C@@H]2O[C@](O)(C[C@@H](O)C[C@@H](O)[C@H](O)CC[C@@H](O)C[C@@H](O)CC(=O)O[C@H]1C)C[C@H](O)[C@H]2C(=O)O [Amphotericin B] |  |  | MIC Candida albicans (ATCC 10231) [1]: <0.5 [46, 47] µg/mL |
|  |  |  |  | CC(C)(O/N=C(\C(=O)N[C@@H]1C(=O)N2C(C(=O)[O-])=C(C[n+]3ccccc3)CS[C@H]12)c1csc(N)n1)C(=O)O [Ceftazidime] |  |  | MIC Staphylococcus aureus (ATCC 6538) [2]: 8 [43, 44, 45] µg/mL; MIC Escherichia coli (ATCC 8739) [3]: 8 [42] µg/mL |
| ≥ 100 | < 6.25 | 5 | < 6.25 | CCS[C@H]1O[C@H](C[N+]2=C3CCCCCN3CCC2)[C@@H](OCc2ccc3ccccc3c2)[C@H](OCc2ccccc2)[C@H]1OCc1ccccc1 [Compound 10] | only slight cytotoxicity; also recorded: greatly reduced toxicity | 15.3 ± 0.78 | membrane permeabilization (cellular fluorescence of SYTOX green) [4]: increased membrane permeabilization; ratio of SYTOX green (SG) positive cells ([4]; after 1 h of incubation): increased the ratio of SG-positive cells; ratio of SYTOX green (SG) positive cells ([4]; after 4 h of incubation): drastically increased; effect on HaCaT cell viability at antibacterially and antifungally active concentrations [7]: hardly affected the cell viability; MIC Candida albicans (ATCC 10231), lower concentrations ([8]; 10× diluted, tested range 0.625–10.0 µg/mL): 5.0 µg/mL; hemolysis compared to negative control PBS (rat red blood cells): did not cause significant hemolysis; hemolysis (haemoglobin release) (rat red blood cells): significantly increased the hemolysis; also recorded: significant haemoglobin release |
| > 100 | 6.25 to 50 |  |  | c1ccc(CO[C@H]2[C@@H](OCc3ccc4ccccc4c3)[C@H](OCc3ccccc3)[C@@H](C[N+]3=C4CCCCCN4CCC3)O[C@@H]2Sc2ccccc2)cc1 [Compound 21] | significant toxic effect; also recorded: cytotoxic | 1.02 ± 0.06 |  |
| ≥ 100 | < 6.25 | 2.5 | < 6.25 | c1ccc(CO[C@@H]2[C@H](OCc3ccccc3)[C@@H](Sc3ccccc3)O[C@H](C[N+]3=C4CCCCCN4CCC3)[C@H]2OCc2ccc3ccccc3c2)cc1 [Compound 22] | only slight cytotoxicity; also recorded: greatly reduced toxicity | 10.3 ± 0.41 | membrane permeabilization (cellular fluorescence of SYTOX green) [4]: increased membrane permeabilization; ratio of SYTOX green (SG) positive cells ([4]; after 1 h of incubation): increased the ratio of SG-positive cells; ratio of SYTOX green (SG) positive cells ([4]; after 4 h of incubation): drastically increased; effect on HaCaT cell viability at antibacterially and antifungally active concentrations [7]: hardly affected the cell viability; hemolysis compared to negative control PBS (rat red blood cells): did not cause significant hemolysis; hemolysis (haemoglobin release) (rat red blood cells): significantly increased the hemolysis; also recorded: significant haemoglobin release |
| > 100 | 6.25 to 50 | 2.5 | < 6.25 | CCS[C@H]1O[C@H](C[N+]2=C3CCCCCN3CCC2)[C@@H](OCc2ccc3ccccc3c2)[C@@H](OCc2ccccc2)[C@H]1OCc1ccccc1 [Compound 29] | only slight cytotoxicity; also recorded: greatly reduced toxicity | 11.9 ± 0.25 | MIC Staphylococcus aureus (ATCC 6538) ([6]; tested range 6.25–100 µg/mL): <12.5 µg/mL |
|  |  |  |  | CNC(C)C1CCC(N)C(OC2C(N)CC(N)C(OC3OCC(C)(O)C(NC)C3O)C2O)O1 (centres unmarked) [Gentamicin] |  |  | MIC Staphylococcus aureus (ATCC 6538) [2]: 8 [43, 44, 45] µg/mL; MIC Escherichia coli (ATCC 8739) [3]: 8 [42] µg/mL |
